According to ChEMBL document CHEMBL2057086, “3-Bromo-3-deazaneplanocin and 3-bromo-3-deazaaristeromycin: synthesis and antiviral activity” (Bioorg Med Chem Lett, 2012):
The source made the active and inactive calls. The calls are words filed in the database; no cut-off is given here.

Key:
SARS-CoV = assay: Antiviral activity against SARS coronavirus infected in african green monkey Vero cells assessed as reduction of viral replication; format: functional, organism-based; conditions: Severe acute respiratory syndrome-related coronavirus
Dengue virus = assay: Antiviral activity against Dengue virus infected in african green monkey Vero cells assessed as reduction of viral replication; format: functional, organism-based
[1] = Selectivity index, ratio of CC50 for HEL to EC50 Cytomegalovirus
[2] = tested on: Venezuelan equine encephalitis virus; assay: Antiviral activity against Venezuelan equine encephalitis virus infected in african green monkey Vero cells assessed as reduction of viral replication; format: functional, organism-based
[3] = Selectivity index, ratio of CC50 for african green monkey Vero 76 cells to EC50 for Rift Valley fever virus; format: toxicity, cell-based; conditions: read-out: Selectivity Index
Influenza B virus = assay: Antiviral activity against Influenza B virus infected in MDCK cells assessed as reduction of viral replication; format: functional, organism-based
[4] = Cytotoxicity against human HeLa assessed as minimum compound concentration required to cause microscopically detectable alteration of normal cell morphology; format: cell-based; conditions: HeLa cells, read-out: Activity
Hepatitis C virus = assay: Antiviral activity against Hepatitis C virus infected in human AVA5 cells assessed as reduction of viral replication; format: functional, organism-based; conditions: Hepacivirus hominis
Cytomegalovirus = assay: Antiviral activity against Cytomegalovirus infected in HEL assessed as reduction of viral replication; format: functional, organism-based; conditions: Human betaherpesvirus 5
Vaccinia virus = assay: Antiviral activity against Vaccinia virus infected in human HeLa cells assessed as reduction of viral replication; format: functional, organism-based; conditions: Orthopoxvirus vaccinia
Influenza A virus [5] = assay: Antiviral activity against Influenza A virus H1N1 infected in MDCK cells assessed as reduction of viral replication; format: functional, organism-based
[6] = Selectivity index, ratio of CC50 for african green monkey Vero 76 cells to EC50 for Tacaribe virus; format: toxicity, cell-based; conditions: read-out: Selectivity Index
[7] = Cytotoxicity against african green monkey Vero cells assessed as reduction of cell viability; format: cell-based; conditions: chlorocebus sabaeus
West Nile virus = assay: Antiviral activity against West Nile virus infected in african green monkey Vero cells assessed as reduction of viral replication; format: functional, organism-based
[8] = Selectivity index, ratio of minimum compound concentration required to cause microscopically detectable alteration of normal cell morphology for human HeLa cells to EC50 for Vaccinia virus; format: toxicity, cell-based; conditions: read-out: Selectivity Index
[9] = Cytotoxicity against HEL assessed as reduction of cell viability; format: cell-based; conditions: human, HEL cells
[10] = tested on: Respiratory syncytial virus; assay: Antiviral activity against Respiratory syncytial virus infected in […] cells assessed as reduction of viral replication; format: functional, organism-based
Yellow fever virus = assay: Antiviral activity against Yellow fever virus infected in african green monkey Vero cells assessed as reduction of viral replication; format: functional, organism-based
[11] = Selectivity index, ratio of CC50 for MDCK cells to EC50 for Influenza B virus; format: toxicity, cell-based; conditions: dog, read-out: Ratio CC50/EC50
[12] = Cytotoxicity against african green monkey Vero 76 cells assessed as reduction of cell viability; format: cell-based; conditions: chlorocebus sabaeus
[13] = Selectivity index, ratio of CC50 for african green monkey Vero cells to EC50 for Measles virus; format: toxicity, cell-based; conditions: read-out: Ratio CC50/EC50
[14] = Cytotoxicity against MDCK cells assessed as reduction of cell viability; format: cell-based, Canis lupus familiaris; conditions: dog
[15] = Selectivity index, ratio of CC50 for african green monkey Vero cells to EC50 for Yellow fever virus; format: toxicity, cell-based; conditions: read-out: Ratio CC50/EC50
Influenza A virus [16] = assay: Antiviral activity against Influenza A virus H5N1 infected in MDCK cells assessed as reduction of viral replication; format: functional, organism-based
Rift Valley fever virus = assay: Antiviral activity against Rift Valley fever virus infected in african green monkey Vero 76 cells assessed as reduction of viral replication; format: functional, organism-based
[17] = Selectivity index, ratio of CC50 for MDCK cells to EC50 for Influenza A virus H5N1; format: toxicity, cell-based; conditions: dog, read-out: Ratio CC50/EC50
Influenza A virus [18] = assay: Antiviral activity against Influenza A virus H3N2 infected in MDCK cells assessed as reduction of viral replication; format: functional, organism-based
Tacaribe virus = assay: Antiviral activity against Tacaribe virus infected in african green monkey Vero 76 cells assessed as reduction of viral replication; format: functional, organism-based; conditions: Mammarenavirus tacaribeense
[19] = Selectivity index, ratio of CC50 for african green monkey Vero cells to EC50 for Dengue virus; format: toxicity, cell-based; conditions: read-out: Selectivity Index
Measles morbillivirus = assay: Antiviral activity against Measles virus infected in african green monkey Vero cells assessed as reduction of viral replication; format: functional, organism-based
[20] = Selectivity index, ratio of CC50 for cat CRFK cells to EC50 for Feline herpesvirus; format: toxicity, cell-based; conditions: read-out: Selectivity Index
[21] = Selectivity index, ratio of CC50 for MDCK cells to EC50 for Influenza A virus H3N2; format: toxicity, cell-based; conditions: dog, read-out: Ratio CC50/EC50
[22] = tested on: Mammalian orthoreovirus 1; assay: Antiviral activity against Reovirus 1 infected in african green monkey Vero cells assessed as reduction of viral replication; format: functional, organism-based
Human alphaherpesvirus 1 = assay: Antiviral activity against HSV-1 infected in HEL assessed as reduction of viral replication; format: functional, organism-based
Coxsackievirus B4 = assay: Antiviral activity against Coxsackievirus B4 virus infected in african green monkey Vero cells assessed as reduction of viral replication; format: functional, organism-based
Cowpox virus = assay: Antiviral activity against Cowpox virus infected in HFF cells assessed as reduction of viral replication; format: functional, organism-based
Human respirovirus 3 = assay: Antiviral activity against Parainfluenza-3 virus infected in african green monkey Vero cells assessed as reduction of viral replication; format: functional, organism-based; conditions: Human respirovirus 3, Vero
Human gammaherpesvirus 4 = assay: Antiviral activity against Epstein-Barr virus infected in human Akata cells assessed as reduction of viral replication; format: functional, organism-based; conditions: human gammaherpesvirus 4, Akata
[23] = Cytotoxicity against human Akata cells assessed as reduction of cell viability; format: cell-based
Pichinde virus = assay: Antiviral activity against Pichinde virus infected in african green monkey Vero cells assessed as reduction of viral replication; format: functional, organism-based
[24] = Selectivity index, ratio of CC50 for MDCK cells to EC50 for Influenza A virus H1N1; format: toxicity, cell-based; conditions: dog, read-out: Ratio CC50/EC50
Junin virus = assay: Antiviral activity against Junin virus infected in african green monkey Vero cells assessed as reduction of viral replication; format: functional, organism-based; conditions: Mammarenavirus juninense
Punta Toro virus = assay: Antiviral activity against Punta Toro virus infected in african green monkey Vero 76 cells assessed as reduction of viral replication; format: functional, organism-based
Human alphaherpesvirus 2 = assay: Antiviral activity against HSV-2 infected in HEL assessed as reduction of viral replication; format: functional, organism-based
[25] = Selectivity index, ratio of CC50 for african green monkey Vero cells to EC50 for Pichinde virus; format: toxicity, cell-based; conditions: read-out: Selectivity Index
Hepatitis B virus = assay: Antiviral activity against HBV infected in human HepG2(2.2.15) cells assessed as reduction of viral replication; format: functional, organism-based
[26] = Selectivity index, ratio of CC50 for african green monkey Vero 76 cells to EC50 for Punta Toro virus; format: toxicity, cell-based; conditions: read-out: Selectivity Index
Sindbis virus = assay: Antiviral activity against Sindbis virus infected in african green monkey Vero cells assessed as reduction of viral replication; format: functional, organism-based
[27] = Selectivity index, ratio of CC50 for african green monkey Vero cells to EC50 for Junin virus; format: toxicity, cell-based; conditions: read-out: Selectivity Index
Feline coronavirus = assay: Antiviral activity against Feline coronavirus assessed as reduction of viral replication; format: functional, organism-based
[28] = Selectivity index, ratio of CC50 for human Akata cells to EC50 for Epstein-Barr virus; format: toxicity, cell-based; conditions: read-out: Selectivity Index
[29] = Cytotoxicity against cat CRFK cells assessed as reduction of cell viability; format: cell-based, Felis catus
[30] = Cytotoxicity against african green monkey Vero cells assessed as minimum compound concentration required to cause microscopically detectable alteration of normal cell morphology; format: cell-based; conditions: chlorocebus sabaeus, read-out: Activity
[31] = tested on: Vesicular stomatitis virus; assay: Antiviral activity against Vesicular stomatitis virus infected in human HeLa cells assessed as reduction of viral replication; format: functional, organism-based
Felid alphaherpesvirus 1 = assay: Antiviral activity against Feline herpesvirus infected in cat CRFK cells assessed as reduction of viral replication; format: functional, organism-based; conditions: Felid alphaherpesvirus 1, CRFK

Nc1ncc(Br)c2c1ncn2[C@@H]1C[C@H](CO)[C@@H](O)[C@H]1O
Activity (SARS-CoV): inactive
EC50 (Dengue virus): 93 µM
Ratio CC50/EC50 [1]: 23
Activity [2]: inactive
selectivity ratio [3]: > 5
EC50 (Influenza B virus): 0.84 µM
MCC [4]: > 300 µM
Activity (Hepatitis C virus): inactive
EC50 (Cytomegalovirus): 3.5 µM
EC50 (Vaccinia virus): 230 µM
EC50 (Influenza A virus [5]): > 290 µM
selectivity ratio [6]: 7.9
CC50 [7]: 70 µM
Activity (West Nile virus): inactive
selectivity ratio [8]: > 1.3
CC50 [9]: 80 µM
Activity [10]: inactive
EC50 (Yellow fever virus): 19 µM
selectivity ratio [11]: > 340
CC50 [12]: > 79 µM
selectivity ratio [13]: 4.3
CC50 [14]: > 290 µM
selectivity ratio [15]: 9.7
EC50 (Influenza A virus [16]): 1.14 µM
EC50 (Rift Valley fever virus): 58.3 µM
selectivity ratio [17]: > 260
EC50 (Influenza A virus [18]): > 290 µM
EC50 (Tacaribe virus): 9.9 µM
selectivity ratio [19]: 2
EC50 (Measles morbillivirus): 16 µM

Nc1ncc(Br)c2c1ncn2[C@@H]1C=C(CO)[C@@H](O)[C@H]1O
selectivity ratio [20]: 470
selectivity ratio [21]: > 190
EC50 (Dengue virus): 2.9 µM
Activity [22]: inactive
Activity [2]: inactive
selectivity ratio [3]: 250
Activity (Human alphaherpesvirus 1): inactive
Activity (Coxsackievirus B4): inactive
EC50 (Influenza B virus): > 0.16 µM
MCC [4]: ≥ 100 µM
Activity (Cowpox virus): inactive
EC50 (Human respirovirus 3): 0.5 µM
EC50 (Human gammaherpesvirus 4): > 0.03 µM
CC50 [23]: 0.13 µM
EC50 (Pichinde virus): 1.2 µM
EC50 (Vaccinia virus): 0.5 µM
EC50 (Influenza A virus [5]): < 0.094 µM
selectivity ratio [24]: > 2340
EC50 (Junin virus): 0.094 µM
EC50 (Punta Toro virus): 0.25 µM
selectivity ratio [6]: > 2000
Activity (Human alphaherpesvirus 2): inactive
CC50 [7]: 15.2 µM
Activity (West Nile virus): inactive
selectivity ratio [25]: 24
Activity (Hepatitis B virus): inactive
selectivity ratio [11]: < 7
selectivity ratio [26]: 140
CC50 [12]: 23.2 µM
CC50 [14]: 1.1 µM
Activity (Sindbis virus): inactive
EC50 (Influenza A virus [16]): 0.94 µM
selectivity ratio [27]: 160
EC50 (Rift Valley fever virus): < 0.094 µM
selectivity ratio [17]: > 310
EC50 (Influenza A virus [18]): 1.55 µM
EC50 (Tacaribe virus): < 0.094 µM
Activity (Feline coronavirus): inactive
selectivity ratio [28]: < 4.3
CC50 [29]: 94 µM
selectivity ratio [19]: 57
MCC [30]: > 100 µM
EC50 [31]: 0.4 µM
EC50 (Felid alphaherpesvirus 1): 0.2 µM
